AC50, EC50 and IC50 data for seven compounds are collected here from ChEMBL document CHEMBL1201862, “PubChem BioAssay data set” (2004).

The structures appear in SMILES notation. The source made the active and inactive calls. Some results are limits rather than exact numbers.

Data set [1] addresses T1, Cytochrome P450 1A2 (Homo sapiens, UniProt P05177).
T1 sequence (P05177 whole entry): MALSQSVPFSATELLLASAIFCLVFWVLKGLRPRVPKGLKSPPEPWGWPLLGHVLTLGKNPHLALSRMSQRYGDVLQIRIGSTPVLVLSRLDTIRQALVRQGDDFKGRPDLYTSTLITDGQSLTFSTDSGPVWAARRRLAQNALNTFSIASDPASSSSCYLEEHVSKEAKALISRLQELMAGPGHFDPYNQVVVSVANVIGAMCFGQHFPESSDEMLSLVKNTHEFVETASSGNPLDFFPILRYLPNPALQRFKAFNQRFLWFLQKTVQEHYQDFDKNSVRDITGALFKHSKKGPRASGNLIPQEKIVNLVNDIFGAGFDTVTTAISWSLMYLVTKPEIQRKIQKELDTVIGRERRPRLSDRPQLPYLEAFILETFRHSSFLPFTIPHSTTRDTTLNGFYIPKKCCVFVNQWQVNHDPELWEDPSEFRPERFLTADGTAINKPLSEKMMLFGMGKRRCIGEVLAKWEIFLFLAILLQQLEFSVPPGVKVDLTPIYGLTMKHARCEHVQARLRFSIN

Data set [2] concerns the target Cytochrome P450 2C19 (Homo sapiens, UniProt P33261). Description: Cytochrome panel assay with activity outcomes. Panel member name: p450-cyp2c19 Compounds with AC50 equal or less than 10 uM are considered active. To be noted: read-out: AC50. The data set is classed as functional.
The target of data set [3] is T2, RNA-binding protein pos-1 (Caenorhabditis elegans, UniProt G5EF15).
T2 sequence (G5EF15 whole entry): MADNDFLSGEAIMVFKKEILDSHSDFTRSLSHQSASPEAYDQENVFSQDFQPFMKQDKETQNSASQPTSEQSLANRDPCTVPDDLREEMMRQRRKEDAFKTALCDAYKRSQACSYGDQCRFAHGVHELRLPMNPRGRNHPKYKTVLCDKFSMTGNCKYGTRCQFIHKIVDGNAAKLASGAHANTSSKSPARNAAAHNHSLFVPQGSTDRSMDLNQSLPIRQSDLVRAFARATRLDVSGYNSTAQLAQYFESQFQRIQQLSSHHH
As to the kind of experiment: disruptors of C. elegans POS-1 RNA interaction – biochemical, fluorescence polarization, dose response (AID 1964).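 Also: purified POS-1 fused to maltose binding protein made in E. coli; potency of compounds blocking POS-1 binding to fluorescent RNA.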 On the technique in general: Fluorescence polarisation rises when a labelled molecule tumbles more slowly, as on binding a larger partner.

Data set [4] concerns the target T3, Zinc finger protein mex-5 (Caenorhabditis elegans, UniProt Q9XUB2).
T3 sequence (Q9XUB2 whole entry): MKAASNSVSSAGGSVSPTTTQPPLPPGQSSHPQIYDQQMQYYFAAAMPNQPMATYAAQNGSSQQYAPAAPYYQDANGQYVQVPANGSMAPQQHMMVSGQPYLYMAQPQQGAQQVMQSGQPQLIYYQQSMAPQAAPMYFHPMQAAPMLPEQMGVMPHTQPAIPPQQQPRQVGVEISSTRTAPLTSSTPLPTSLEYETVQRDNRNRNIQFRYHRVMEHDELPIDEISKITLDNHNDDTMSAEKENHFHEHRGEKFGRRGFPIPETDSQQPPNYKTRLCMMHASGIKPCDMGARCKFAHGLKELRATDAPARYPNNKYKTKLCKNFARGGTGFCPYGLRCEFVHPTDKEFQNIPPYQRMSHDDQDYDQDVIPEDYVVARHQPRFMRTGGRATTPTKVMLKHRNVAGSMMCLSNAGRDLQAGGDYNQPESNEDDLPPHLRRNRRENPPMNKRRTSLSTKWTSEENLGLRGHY
As to the kind of experiment: potency of MEX-5 RNA-binding blockers – biochemical, C. elegans, fluorescence polarization, dose response (AID 1960).

Data set [5] has as its target UDP-galactopyranose mutase (Mycobacterium tuberculosis, UniProt P9WIQ1). Description: Inhibitors of Mycobacterium tuberculosis UDP-galactopyranose mutase (UGM) enzyme Measured in Biochemical System Using Plate Reader - 2105-02_Inhibitor_Dose_CherryPick_Activity. [Related pubchem assays (depositor defined):AID504439].
Data set [6] addresses T4, ORF 73 (Human herpesvirus 8, UniProt O40947).
T4 sequence (O40947 whole entry): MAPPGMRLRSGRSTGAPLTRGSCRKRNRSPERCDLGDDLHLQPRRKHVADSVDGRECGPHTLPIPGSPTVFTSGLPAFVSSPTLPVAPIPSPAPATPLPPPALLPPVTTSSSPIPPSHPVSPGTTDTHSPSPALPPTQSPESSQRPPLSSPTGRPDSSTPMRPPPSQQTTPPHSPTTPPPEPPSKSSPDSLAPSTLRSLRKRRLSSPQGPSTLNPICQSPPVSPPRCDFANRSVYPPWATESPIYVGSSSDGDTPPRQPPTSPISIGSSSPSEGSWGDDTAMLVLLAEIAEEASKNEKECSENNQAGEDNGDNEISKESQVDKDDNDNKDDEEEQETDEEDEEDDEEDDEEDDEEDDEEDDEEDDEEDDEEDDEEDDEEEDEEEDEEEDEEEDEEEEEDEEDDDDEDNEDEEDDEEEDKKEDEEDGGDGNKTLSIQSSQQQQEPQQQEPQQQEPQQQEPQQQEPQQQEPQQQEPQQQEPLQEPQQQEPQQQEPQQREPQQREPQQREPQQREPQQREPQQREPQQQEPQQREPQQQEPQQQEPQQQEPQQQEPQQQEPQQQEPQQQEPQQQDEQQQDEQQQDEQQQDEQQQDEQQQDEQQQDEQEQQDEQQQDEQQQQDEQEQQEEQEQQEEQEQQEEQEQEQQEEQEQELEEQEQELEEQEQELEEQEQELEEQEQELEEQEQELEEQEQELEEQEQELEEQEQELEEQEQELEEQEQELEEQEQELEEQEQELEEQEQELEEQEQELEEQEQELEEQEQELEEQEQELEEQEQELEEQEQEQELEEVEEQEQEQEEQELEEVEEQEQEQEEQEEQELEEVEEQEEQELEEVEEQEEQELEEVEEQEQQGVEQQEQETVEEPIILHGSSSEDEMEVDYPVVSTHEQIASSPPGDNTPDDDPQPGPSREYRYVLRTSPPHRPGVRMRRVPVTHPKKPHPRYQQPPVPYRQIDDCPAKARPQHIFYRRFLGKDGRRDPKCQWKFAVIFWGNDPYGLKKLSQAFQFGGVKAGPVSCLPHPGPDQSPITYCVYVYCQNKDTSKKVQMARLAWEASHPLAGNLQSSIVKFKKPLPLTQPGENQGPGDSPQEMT
Description: KSHV LANA DNA-binding disruption – biochemical, fluorescence polarization, cherry-picked samples, dose response (AID 504725).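 Also: fluorescence polarization of a labeled DNA duplex reporting LANA DNA binding; potency is for inhibitors that block LANA binding to the DNA.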 Further details: species or system Human gammaherpesvirus 8.

For data set [7], the target named is Intestinal-type alkaline phosphatase (Mus musculus, UniProt P24822). Description: mouse intestinal alkaline phosphatase activators, dose response, biochemical, luminescence, uHTS hits (AID 488783). The data set is classed as functional.
Intestinal-type alkaline phosphatase (Mus musculus, UniProt P24822), sequence (P24822 whole entry): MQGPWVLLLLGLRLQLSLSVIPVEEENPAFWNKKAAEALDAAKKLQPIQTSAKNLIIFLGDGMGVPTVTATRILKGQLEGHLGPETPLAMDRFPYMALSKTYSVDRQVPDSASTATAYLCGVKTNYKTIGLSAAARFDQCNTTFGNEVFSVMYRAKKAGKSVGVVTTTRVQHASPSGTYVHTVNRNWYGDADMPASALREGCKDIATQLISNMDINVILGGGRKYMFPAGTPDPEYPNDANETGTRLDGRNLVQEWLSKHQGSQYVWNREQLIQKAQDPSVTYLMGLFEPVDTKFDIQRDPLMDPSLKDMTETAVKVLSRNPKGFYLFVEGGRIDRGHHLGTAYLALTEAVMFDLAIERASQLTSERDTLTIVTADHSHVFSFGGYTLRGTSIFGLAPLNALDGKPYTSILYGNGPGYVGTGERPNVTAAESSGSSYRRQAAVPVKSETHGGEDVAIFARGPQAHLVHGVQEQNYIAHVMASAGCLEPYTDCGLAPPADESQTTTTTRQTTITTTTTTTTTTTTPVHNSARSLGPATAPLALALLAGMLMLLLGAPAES
Data set [8] concerns the target Induced myeloid leukemia cell differentiation protein Mcl-1 (Homo sapiens, UniProt Q07820). Description: blockers of MCL1 binding to BIM peptide – biochemical, fluorescence polarization, BIM-BH3 peptide, 1536-well, dose response (AID 2217).
Data set [9] addresses T5, Alkaline phosphatase, tissue-nonspecific isozyme (Homo sapiens, UniProt P05186).
T5 sequence (P05186 whole entry): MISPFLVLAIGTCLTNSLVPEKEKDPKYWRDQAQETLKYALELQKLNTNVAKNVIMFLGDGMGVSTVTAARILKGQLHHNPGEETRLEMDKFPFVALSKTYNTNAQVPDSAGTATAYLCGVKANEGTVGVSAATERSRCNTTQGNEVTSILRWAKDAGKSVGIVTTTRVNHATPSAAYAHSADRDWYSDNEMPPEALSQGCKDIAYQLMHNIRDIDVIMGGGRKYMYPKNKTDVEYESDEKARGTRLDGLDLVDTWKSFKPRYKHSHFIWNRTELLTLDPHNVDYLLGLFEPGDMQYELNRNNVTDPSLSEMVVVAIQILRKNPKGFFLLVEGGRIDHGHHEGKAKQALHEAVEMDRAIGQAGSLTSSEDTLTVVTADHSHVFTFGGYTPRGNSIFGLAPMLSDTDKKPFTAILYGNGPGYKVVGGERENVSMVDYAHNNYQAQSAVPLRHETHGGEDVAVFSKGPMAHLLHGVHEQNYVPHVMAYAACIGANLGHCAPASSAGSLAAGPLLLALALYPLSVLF
Description: activation of tissue-nonspecific alkaline phosphatase – biochemical, TNAP isozyme, mouse IAP uHTS hits, selectivity assay for mouse IAP activator project, dose response (AID 488880). Type of data set: functional.

The target of data set [10] is Intestinal-type alkaline phosphatase (Homo sapiens, UniProt P09923). As to the kind of experiment: activation of human intestinal alkaline phosphatase – biochemical, dose response (AID 488873). Type of data set: functional.
Data set [11] addresses Genome polyprotein (dengue virus type 2, UniProt P29990). Description: flavivirus cap methylation enzyme inhibition – biochemical, confirmation dose response, primary screen (AID 588689). Type of data set: functional.
Data set [12] concerns the target Albumin (Bos taurus, UniProt P02769). Description: Counterscreen for inhibitors of T-cell receptor (TCR)-CD3 interaction: Fluorescence-based biochemical high throughput dose response assay to identify inhibitors of T-cell receptor (TCR)-CD3 interaction using a TAMRA-labeled BSA probe. The data set is classed as functional. (The purpose of a counterscreen is to sort out artefacts and off-target activity.)

The target in data set [13] is Bcl-2-like protein 1 (Homo sapiens, UniProt Q07817). Description: blockers of BCLXL peptide binding – biochemical, fluorescence polarization, 1536-well, selectivity assay for MCL1 inhibitor project, dose response (AID 2218).
Bcl-2-like protein 1, sequence (Q07817 whole entry): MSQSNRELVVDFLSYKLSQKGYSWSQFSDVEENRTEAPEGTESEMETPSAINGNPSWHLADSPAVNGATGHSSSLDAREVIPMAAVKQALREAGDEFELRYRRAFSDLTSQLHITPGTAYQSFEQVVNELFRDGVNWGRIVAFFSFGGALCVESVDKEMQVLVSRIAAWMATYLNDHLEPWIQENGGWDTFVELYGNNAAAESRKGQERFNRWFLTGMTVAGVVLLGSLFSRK
The target in data set [14] is Cytochrome P450 3A4 (Homo sapiens, UniProt P08684).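 Also: CYP3A4 tested as one member of a cytochrome P450 panel screen.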
Data set [15] has as its target Cytochrome P450 2C9 (Homo sapiens, UniProt P11712).
For data set [16], the target named is Mu-type opioid receptor (Homo sapiens, UniProt P35372). Description: SAR Analysis of Agonists of the MOR Receptor using an Image-Based Assay - Set 3. [Related pubchem assays (depositor defined):AID1777, AID1785, AID1786, AID1966, AID2133, AID2136, AID2284, AID2285, AID2352]. Type of data set: functional.
Mu-type opioid receptor, sequence (P35372 whole entry): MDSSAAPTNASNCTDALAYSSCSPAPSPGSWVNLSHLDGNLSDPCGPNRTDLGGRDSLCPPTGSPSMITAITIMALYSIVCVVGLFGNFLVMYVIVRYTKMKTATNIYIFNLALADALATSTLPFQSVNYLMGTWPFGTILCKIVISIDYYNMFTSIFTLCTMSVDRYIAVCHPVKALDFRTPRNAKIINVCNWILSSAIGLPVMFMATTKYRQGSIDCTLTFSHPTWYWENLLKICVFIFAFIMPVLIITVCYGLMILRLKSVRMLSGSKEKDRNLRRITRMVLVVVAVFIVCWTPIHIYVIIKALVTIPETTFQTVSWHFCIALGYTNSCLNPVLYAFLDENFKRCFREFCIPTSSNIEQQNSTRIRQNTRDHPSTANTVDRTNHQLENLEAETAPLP
The target in data set [17] is Delta-type opioid receptor (Homo sapiens, UniProt P41143). As to the kind of experiment: SAR Analysis of Agonists of the DOR Receptor using an Image-Based Assay - Set 3. [Related pubchem assays (depositor defined):AID1777, AID1786]. Type of data set: functional.
Delta-type opioid receptor, sequence (P41143 whole entry): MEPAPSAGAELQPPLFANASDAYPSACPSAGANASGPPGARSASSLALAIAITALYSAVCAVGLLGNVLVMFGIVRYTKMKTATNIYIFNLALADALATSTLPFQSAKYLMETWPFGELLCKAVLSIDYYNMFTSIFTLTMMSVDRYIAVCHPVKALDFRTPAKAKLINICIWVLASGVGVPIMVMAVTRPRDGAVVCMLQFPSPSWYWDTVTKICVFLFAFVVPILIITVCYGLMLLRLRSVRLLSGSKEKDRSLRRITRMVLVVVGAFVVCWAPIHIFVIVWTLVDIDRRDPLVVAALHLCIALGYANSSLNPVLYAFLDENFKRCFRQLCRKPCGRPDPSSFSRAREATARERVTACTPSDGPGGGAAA
The target in data set [18] is T6, Kappa-type opioid receptor (Homo sapiens, UniProt P41145). Description: kappa opioid receptor activation by imaging – image-based, set 3, SAR follow-up (AID 488833). The data set is classed as functional.
T6 sequence (P41145 whole entry): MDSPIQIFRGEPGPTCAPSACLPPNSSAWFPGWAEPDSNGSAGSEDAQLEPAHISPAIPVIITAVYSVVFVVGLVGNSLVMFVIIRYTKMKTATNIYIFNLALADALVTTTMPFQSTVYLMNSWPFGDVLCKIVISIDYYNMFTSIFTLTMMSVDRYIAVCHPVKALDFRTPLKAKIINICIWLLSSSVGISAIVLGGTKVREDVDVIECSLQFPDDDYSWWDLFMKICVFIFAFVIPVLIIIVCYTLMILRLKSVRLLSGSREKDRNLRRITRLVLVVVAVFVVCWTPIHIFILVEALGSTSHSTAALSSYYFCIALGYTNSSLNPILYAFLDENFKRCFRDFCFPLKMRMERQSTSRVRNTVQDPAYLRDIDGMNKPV
Data set [19] concerns the target T6, Kappa-type opioid receptor. Description: SAR analysis of small molecule agonists of the kappa opioid receptor via a luminescent beta-arrestin assay - Set 3. [Related pubchem assays (depositor defined):AID1777, AID1785, AID1786, AID1966, AID2133, AID2136, AID2284, AID2500]. The data set is classed as functional.
In data set [20] the target is Phosphomannomutase 2 (Homo sapiens, UniProt O15305). Description: Counter screen SAR assay for PMM2 inhibitors via a fluorescence intensity assay. [Related pubchem assays (depositor defined):AID1545, AID1574].
Phosphomannomutase 2, sequence (O15305 whole entry): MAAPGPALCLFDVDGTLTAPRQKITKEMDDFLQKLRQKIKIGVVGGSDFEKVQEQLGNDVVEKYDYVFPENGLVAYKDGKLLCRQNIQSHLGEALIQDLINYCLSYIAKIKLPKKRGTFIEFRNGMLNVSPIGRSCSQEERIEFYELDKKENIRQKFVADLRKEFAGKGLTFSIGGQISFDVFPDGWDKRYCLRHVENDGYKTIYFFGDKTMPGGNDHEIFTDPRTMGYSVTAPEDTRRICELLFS
Data set [21] deals with T7, Mannose-6-phosphate isomerase (Homo sapiens, UniProt P34949).
T7 sequence (P34949 whole entry): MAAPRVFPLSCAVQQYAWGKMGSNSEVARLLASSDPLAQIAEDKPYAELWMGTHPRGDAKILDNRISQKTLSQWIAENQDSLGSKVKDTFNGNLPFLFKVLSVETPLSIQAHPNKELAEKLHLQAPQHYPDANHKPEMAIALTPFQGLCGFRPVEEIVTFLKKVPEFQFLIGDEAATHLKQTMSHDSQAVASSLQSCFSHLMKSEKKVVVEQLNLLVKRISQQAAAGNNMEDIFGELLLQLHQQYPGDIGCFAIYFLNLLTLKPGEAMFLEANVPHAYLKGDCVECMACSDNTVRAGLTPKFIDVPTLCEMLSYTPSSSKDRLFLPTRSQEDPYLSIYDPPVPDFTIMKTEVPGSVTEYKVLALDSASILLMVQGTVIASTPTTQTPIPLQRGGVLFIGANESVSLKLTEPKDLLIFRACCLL
Description: phosphomannose isomerase inhibition – biochemical, fluorescence intensity, confirmation (AID 1535).

Data set [22] is described as follows: T. cruzi infection blockers in NIH3T3 cells – beta-gal luminescence, NIH3T3 host cells, confirmation (AID 2630). Type of data set: functional, cell-based. To be noted: Mus musculus.

Cytochrome P450 2C19, sequence (P33261 whole entry): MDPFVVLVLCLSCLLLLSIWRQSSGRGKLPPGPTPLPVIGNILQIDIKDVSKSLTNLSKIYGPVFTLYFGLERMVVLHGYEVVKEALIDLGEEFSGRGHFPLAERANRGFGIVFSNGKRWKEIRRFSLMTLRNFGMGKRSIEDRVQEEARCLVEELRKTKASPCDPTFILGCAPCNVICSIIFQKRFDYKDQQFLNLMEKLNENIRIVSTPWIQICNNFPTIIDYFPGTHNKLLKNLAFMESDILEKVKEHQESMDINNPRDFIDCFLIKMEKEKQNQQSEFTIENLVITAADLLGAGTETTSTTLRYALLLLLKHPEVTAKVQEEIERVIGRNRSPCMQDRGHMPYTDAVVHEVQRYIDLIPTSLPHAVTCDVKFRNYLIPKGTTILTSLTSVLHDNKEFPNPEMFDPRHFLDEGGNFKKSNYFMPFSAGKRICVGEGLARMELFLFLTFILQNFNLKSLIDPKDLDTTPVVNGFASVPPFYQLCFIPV
Induced myeloid leukemia cell differentiation protein Mcl-1, sequence (Q07820 whole entry): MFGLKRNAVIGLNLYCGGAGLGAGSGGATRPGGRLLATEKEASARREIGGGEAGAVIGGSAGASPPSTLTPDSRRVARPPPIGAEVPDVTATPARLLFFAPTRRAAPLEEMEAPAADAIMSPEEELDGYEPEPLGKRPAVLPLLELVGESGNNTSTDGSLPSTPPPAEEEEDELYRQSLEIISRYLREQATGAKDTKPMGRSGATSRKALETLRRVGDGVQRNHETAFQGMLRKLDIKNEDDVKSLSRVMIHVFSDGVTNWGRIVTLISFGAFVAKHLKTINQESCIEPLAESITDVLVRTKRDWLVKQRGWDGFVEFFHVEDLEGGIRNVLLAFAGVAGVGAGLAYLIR
Cytochrome P450 2C9, sequence (P11712 whole entry): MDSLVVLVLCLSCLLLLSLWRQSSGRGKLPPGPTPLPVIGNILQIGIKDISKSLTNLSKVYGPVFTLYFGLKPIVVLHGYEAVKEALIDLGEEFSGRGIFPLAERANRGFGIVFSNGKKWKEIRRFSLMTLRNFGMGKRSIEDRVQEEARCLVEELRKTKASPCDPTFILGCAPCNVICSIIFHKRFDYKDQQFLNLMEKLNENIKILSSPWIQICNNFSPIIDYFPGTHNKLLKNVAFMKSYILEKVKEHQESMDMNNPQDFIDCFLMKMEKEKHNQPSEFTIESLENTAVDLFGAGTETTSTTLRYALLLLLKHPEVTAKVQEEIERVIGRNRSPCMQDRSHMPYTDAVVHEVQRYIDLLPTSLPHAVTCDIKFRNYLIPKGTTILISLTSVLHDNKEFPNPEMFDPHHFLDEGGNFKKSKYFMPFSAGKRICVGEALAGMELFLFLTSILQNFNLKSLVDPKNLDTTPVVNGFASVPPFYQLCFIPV
Genome polyprotein, sequence (P29990 2492-3391 limits assumed): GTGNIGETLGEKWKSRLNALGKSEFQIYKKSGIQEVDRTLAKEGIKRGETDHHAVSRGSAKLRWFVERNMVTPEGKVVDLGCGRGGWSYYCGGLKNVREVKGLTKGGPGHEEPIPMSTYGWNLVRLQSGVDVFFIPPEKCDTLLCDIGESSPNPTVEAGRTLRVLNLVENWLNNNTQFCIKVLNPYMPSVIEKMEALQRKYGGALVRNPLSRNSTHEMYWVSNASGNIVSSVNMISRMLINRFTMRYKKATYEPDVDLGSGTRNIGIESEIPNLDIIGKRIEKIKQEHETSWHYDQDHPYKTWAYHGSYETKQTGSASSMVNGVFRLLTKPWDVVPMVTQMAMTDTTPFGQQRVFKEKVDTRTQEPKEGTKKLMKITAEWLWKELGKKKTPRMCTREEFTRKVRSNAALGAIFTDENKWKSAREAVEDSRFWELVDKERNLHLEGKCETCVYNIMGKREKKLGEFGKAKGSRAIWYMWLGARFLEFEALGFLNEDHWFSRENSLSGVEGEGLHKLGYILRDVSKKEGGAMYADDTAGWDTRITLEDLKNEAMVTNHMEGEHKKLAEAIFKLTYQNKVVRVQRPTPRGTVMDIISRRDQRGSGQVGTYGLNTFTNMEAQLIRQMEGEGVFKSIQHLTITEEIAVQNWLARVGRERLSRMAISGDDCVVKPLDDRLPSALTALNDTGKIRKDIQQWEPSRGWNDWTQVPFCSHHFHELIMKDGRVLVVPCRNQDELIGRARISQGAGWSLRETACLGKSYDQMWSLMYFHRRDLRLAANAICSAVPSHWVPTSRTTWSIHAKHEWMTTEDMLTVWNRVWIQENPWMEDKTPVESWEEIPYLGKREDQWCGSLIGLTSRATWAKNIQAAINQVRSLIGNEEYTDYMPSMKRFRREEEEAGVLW
UDP-galactopyranose mutase, sequence (P9WIQ1 whole entry): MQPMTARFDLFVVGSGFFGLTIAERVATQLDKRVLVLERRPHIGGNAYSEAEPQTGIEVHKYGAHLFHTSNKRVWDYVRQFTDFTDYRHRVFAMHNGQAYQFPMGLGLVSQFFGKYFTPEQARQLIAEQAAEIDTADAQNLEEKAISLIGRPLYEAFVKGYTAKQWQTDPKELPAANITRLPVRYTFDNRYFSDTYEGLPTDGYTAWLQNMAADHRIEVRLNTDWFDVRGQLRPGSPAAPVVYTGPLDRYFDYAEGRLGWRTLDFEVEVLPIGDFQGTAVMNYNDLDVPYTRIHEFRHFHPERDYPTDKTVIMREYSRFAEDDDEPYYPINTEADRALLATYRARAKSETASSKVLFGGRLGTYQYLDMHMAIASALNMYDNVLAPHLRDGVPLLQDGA

Usually AC50 stands for the midpoint of the concentration-response curve, whichever way the signal moves. With `CC(C)[C@@H]1C(=O)N(S(C)(=O)=O)[C@H]2CCN(C(=O)/C=C\CN3CCCCC3)[C@@H]12`, the AC50 result in data set [1] is “inconclusive”; in [2] it was 20 µM (inconclusive).

The term EC50 denotes the concentration needed to bring the measured effect to its halfway point. As to `Cc1ccc(C)c(N2CCN(C(=O)c3cc4ccccn4n3)CC2)c1`, the half-maximal effective concentration (EC50) in [3] was 72.9 µM (active); in data set [4], 33.7 µM (active). Besides, the AC50 was 177 µM (active) in data set [5] and 269 µM (active) in data set [6].

For orientation: IC50 means the midpoint of a concentration-inhibition curve. Take `O=c1cc(-c2ccc(O)cc2)oc2c(O)c(O)c(O)c(O)c12`: the EC50 in data set [7] is 71.9 µM (active); in data set [9] it was 43.4 µM (active); in data set [10], 81 µM (active). For the same compound, the IC50 in [8] is 18.8 µM (not active); in data set [11], > 100 µM (active); in [12], > 94.2 µM (inactive); in data set [13], > 109 µM (not active).

Take `Cc1ccc(C)c(N2CCN(C(=O)C3CCN(S(=O)(=O)c4cccc5nsnc45)CC3)CC2)c1`: the values for the AC50 result in data set [14], in data set [2] and in data set [15] were “inconclusive”, 4.47 µM (inconclusive) and 7.08 µM (inconclusive), respectively.

As for `Fc1ccc(CSc2nnc(-c3ccccn3)n2Cc2ccco2)c(F)c1F`, the EC50 in data set [16] was > 32 µM (inactive); in data set [17], > 64 µM (inactive); in data set [18], 5.29 µM (active); in data set [19], 7.01 µM (active).

In the case of `COCC/N=c1\ssnc1Cl`, the IC50 is > 100 µM (inactive) in [20] and 11.9 µM (active) in data set [21].

As to `O=C(CN1CCOCC1)N/N=C/c1ccc([N+](=O)[O-])o1`, the EC50 in [22] was 0.127 µM (active).
